Results reported in patent US5583000A, “Protease-binding compounds and methods of use” (priority 1993, dated 1996).
Like-named read-outs stand apart in the source and are kept apart here.

Key:
HIV-2 protease = target: T1, HIV-2 protease (Human immunodeficiency virus type 2 subtype A, UniProt P04584); assay: biochemical; details: 1M NaCl
T1 construct: the coding region of the 99-amino acid protease; made in house; host or cells: Saccharomyces cerevisiae strain AB110, plasmid pHIV2PR115
Description: The decapeptide was synthesized by conventional solid-state methods. Reactions were carried out and fractionated by HPLC. Conversion of the decapeptide to the two pentapeptides was quantitated by integration of the peak areas and comparison to product standard curves.
Enzymatic Inhibition. […] Each data point was done in triplicate and initial enzyme rates were fit to the Michaelis-Menten equation using a nonlinear regression program ("Enzfitter" from Biosoft).

HIV-1 protease = HIV-1 protease (Human immunodeficiency virus type 1 group M subtype B, UniProt P03369); assay: biochemical
[1] = HIV-1 Protease IC50 (μM) 1M NaCl

T1 sequence (P04584 514-612 limits assumed): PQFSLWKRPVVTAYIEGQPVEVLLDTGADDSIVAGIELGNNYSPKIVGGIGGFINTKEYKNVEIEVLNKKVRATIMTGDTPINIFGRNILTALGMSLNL
Description for in vitro: Cytotoxicity. The MTT assay was performed as follows:
The cells were seeded in 96-well plates and grown overnight to near 50% confluency. A serial dilution (1 to 500 μM) of each compound in culture media was prepared and 250 μL/well was added in duplicate. The cells were allowed to grow for various periods of time (6, 24, 48 hours) and any precipitation of compounds in the wells was noted. The assay was performed by removing 200 μL of the culture media and adding 25 μL of MTT solution (2 mg/mL in phosphate buffered saline (PBS)). This was incubated for 4 hours at 37° C. and live cells began to turn purple while the solution remained yellow. To quench the reaction and solubilize the reaction product, 160 μL of acidified isopropanol (4 mL 1N HCl for 96 mL alcohol) were added and the resulting mixture was mixed vigorously to dissolve purple crystals. Absorbance was determined at 550-570 nm on an ELISA plate reader within 0.5-2 hours. […] To obtain the LD50 values for each compound, the concentration at which the absorbance is haft of that for the untreated cells was determined.

C[C@@H]1SC(CCCN2CCC(O)(c3ccc(Cl)cc3)CC2)(c2ccc(F)cc2)S[C@H]1C (relative stereo) [UCSF12, (trans-2,3-butanethioacetal)-4-[4-(p-chlorophenyl)-4-hydroxypiperidinyl]-4'-fluorobutyro-phenone]
CC50 at 6 h (in vitro): 35 µM
IC50 (HIV-2 protease): 50 µM
solubility (physchem): < 250 µM
HIV-1 Protease Therapeutic Index (LD50 /IC50) (HIV-1 protease): 0.5
IC50 (HIV-1 protease; [1]): 350 µM

OC1(c2ccc(Cl)cc2)CCN(CCCN(Cc2ccccc2)Cc2ccc(-c3ccccc3)cc2)CC1 [UCSF63]
CC50 at 6 h (in vitro): 25 µM
IC50 (HIV-2 protease): 15 µM
solubility (physchem): > 500 µM
IC50 (HIV-1 protease; [1]): 18 µM

CC(CCc1ccccc1)N1CCC(O)(c2ccc(Cl)cc2)CC1 (centres unmarked) [UCSF73]
CC50 at 6 h (in vitro): 360 µM
IC50 (HIV-2 protease): 188 µM
solubility (physchem): < 500 µM
IC50 (HIV-1 protease; [1]): 100 µM

O=C(CCCN1CCC(O)(c2ccc(Cl)cc2)CC1)c1ccc(-c2ccccc2)cc1 [UCSF36, 4-[4-(p-chlorophenyl)-4-hydroxypiperidinyl]-4'-phenylbutyrophenone]
CC50 at 6 h (in vitro): 50 µM
IC50 (HIV-2 protease): 53 µM
solubility (physchem): < 50 µM
HIV-1 Protease Therapeutic Index (LD50 /IC50) (HIV-1 protease): 1.4
IC50 (HIV-1 protease; [1]): 32 µM

O=C(Cc1ccccc1)N(CCCN1CCC(O)(c2ccc(Cl)cc2)CC1)Cc1ccccc1 [UCSF66]
CC50 at 6 h (in vitro): 25 µM
IC50 (HIV-2 protease): 48 µM
solubility (physchem): < 250 µM
HIV-1 Protease Therapeutic Index (LD50 /IC50) (HIV-1 protease): 0.3
IC50 (HIV-1 protease; [1]): 70 µM

Cc1ccc(C(=O)CC(CN2CCC(O)(c3ccc(Cl)cc3)CC2)c2ccccc2)cc1 (centres unmarked) [UCSF43, 4-[4-(p-chlorophenyl)-4-hydroxypiperidinyl]-3-phenyl-4'-methylbutyrophenone]
CC50 at 6 h (in vitro): 350 µM
IC50 (HIV-2 protease): 27 µM
solubility (physchem): > 500 µM
HIV-1 Protease Therapeutic Index (LD50 /IC50) (HIV-1 protease): 7(1)
IC50 (HIV-1 protease; [1]): 50 µM

O=C(CCCN1CCC(O)(c2ccccc2)CC1)c1ccccc1 [UCSF34, 4-(4-phenyl-4-hydroxypiperidinyl)butyrophenone]
CC50 at 6 h (in vitro): > 500 µM
IC50 (HIV-2 protease): 288 µM
solubility (physchem): > 500 µM
HIV-1 Protease Therapeutic Index (LD50 /IC50) (HIV-1 protease): > 1.25
IC50 (HIV-1 protease; [1]): 400 µM

C#CCC(CCN1CCC(O)(c2ccc(Cl)cc2)CC1)C(=O)c1ccc(F)cc1 (centres unmarked) [UCSF68]
CC50 at 6 h (in vitro): 100 µM
IC50 (HIV-2 protease): 48 µM
solubility (physchem): < 500 µM
IC50 (HIV-1 protease; [1]): 105 µM

CC(=O)OC1(c2ccc(Cl)cc2)CCN(CCCC(=O)c2ccc(F)cc2)CC1 [UCSF6, 4-[4-(p-chlorophenyl)-4-acetoxypiperidinyl]-4'-fluorobutyrophenone]
CC50 at 6 h (in vitro): 250 µM
IC50 (HIV-2 protease): 533 µM
solubility (physchem): > 250 µM
IC50 (HIV-1 protease; 1M NaCl): 725 µM
HIV-1 Protease Therapeutic Index (LD50 /IC50) (HIV-1 protease; LD50/IC50): 0.3

OC1(c2ccc(Cl)cc2)CCN(CCCC2(c3ccc(F)cc3)SCc3ccc(cc3)CS2)CC1 [UCSF22, (1,4-benzenedimethanethioacetal)-4-[4-(p-chlorophenyl)-4-hydroxypiperidinyl]-4'-fluorobutyrophenone]
CC50 at 6 h (in vitro): > 500 µM
IC50 (HIV-2 protease): 54 µM
solubility (physchem): < 50 µM
HIV-1 Protease Therapeutic Index (LD50 /IC50) (HIV-1 protease): 5(0.5)
IC50 (HIV-1 protease; [1]): 100 µM

O=C(CCCN1CCC(CO)(c2ccccc2)CC1)c1ccc(F)cc1 [UCSF60]
CC50 at 4 h (in vitro): > 500 µM
IC50 (HIV-2 protease): > 2500 µM
solubility (physchem): > 500 µM
HIV-1 Protease Therapeutic Index (LD50 /IC50) (HIV-1 protease): > 0.2
IC50 (HIV-1 protease; [1]): 2500 µM

C[C@@H]1SC(CCCN2CCC(O)(c3ccc(Cl)cc3)CC2)(c2ccc(F)cc2)S[C@@H]1C (relative stereo) [UCSF64]
CC50 at 6 h (in vitro): 25 µM
IC50 (HIV-2 protease): 29 µM
solubility (physchem): < 50 µM
IC50 (HIV-1 protease; [1]): 16 µM

OC1(c2ccc(Cl)cc2)CCN(CCCC2(c3ccc(F)cc3)SCc3ccccc3CS2)CC1 [UCSF18, (1,2-benzene-dimethanethioacetal)-4-[4-(p-chlorophenyl)-4-hydroxypiperidinyl]-4'-fluorobutyrophenone]
CC50 at 6 h (in vitro): 35 µM
IC50 (HIV-2 protease): 10 µM
solubility (physchem): > 250 µM
HIV-1 Protease Therapeutic Index (LD50 /IC50) (HIV-1 protease): 1.4
IC50 (HIV-1 protease; [1]): 25 µM

OC1(c2ccc(Cl)cc2)CCN(CCCC(O)(c2ccccc2)c2ccccc2-c2ccccc2)CC1 (centres unmarked) [UCSF56]
CC50 at 4 h (in vitro): 20 µM
IC50 (HIV-2 protease): 11 µM
solubility (physchem): < 500 µM
IC50 (HIV-1 protease; [1]): 20 µM
